# Test results reported in patent publication US20240415789A1, “CYCLOBENZAPRINE FOR TREATMENT OR PREVENTION OF SEXUAL DYSFUNCTION ASSOCIATED WITH MENTAL HEALTH CONDITIONS IN FEMALE PATIENTS” (Tonix Pharmaceuticals Holding Corp., priority 2021, published 2024).
# Structures can show the parent of a compound that is named as a salt. Where two headings read alike, the source gives them in different places.
# What was measured:
# [1] = system: female sexual functioning in females with predominantly civilian PTSD; conditions: civilian Phase 3, female completers 5.6 mg (N=58) vs placebo (N=55), 12 weeks
# Description: (§1) Three randomized, placebo-controlled and double-blind clinical trials of the above described 5.6 mg cyclobenzaprine HCl sublingual formulation (2×2.8 mg tablets) were performed, a Phase 2 study and a Phase 3 study in military-related PTSD, and a Phase 3 study in predominantly civilian PTSD. […] The present retrospective analysis examined the activity of the cyclobenzaprine HCl sublingual formulation on the Changes in Sexual Functioning Questionnaire short form (CSFQ-14) in the two Phase 3 studies.
# (§2) In the Phase 3 study in predominantly civilian PTSD, the inclusion criteria were broadened to include civilian participants with current PTSD, as determined by the CAPS-5. Accordingly, this study included 94% civilian trauma with a minimum baseline severity score of ≥33 on the CAPS-5. […] Thus, analyses were conducted on the interim analysis sample of 252 participants in the military Phase 3 study (89% male [n=225 M; n=27 F]; 100% military PTSD) and […] subjects in the civilian Phase 3 study (79% female [n=129 F; n=34 M]; 94% civilian PTSD).
# (§3) The CSFQ-14 is a validated 14-item measure (Keller, McGarvey, Clayton, 2006) that has male and female versions which were analyzed separately. In addition to a total sexual functioning score, there are five sub-scales: desire/frequency, desire/interest, arousal/excitement, orgasm/complete, and pleasure. The items range on 5-point Likert scale from (never) to (every day). Higher scores reflect greater levels of sexual functioning.
# [2] = system: female sexual functioning in females with military-related PTSD; conditions: military Phase 3, females 5.6 mg (N=8) vs placebo (N=16), 12 weeks
# Description: (§4) Methods: In this 12-week, multicenter, adaptive design, randomized controlled fixed-dose trial, 5.6 mg cyclobenzaprine HCl (2×2.8 mg sublingual tablets, comprising a 75%±2% cyclobenzaprine HCl and 25%±2% mannitol eutectic and a potassium phosphate dibasic anhydrous basifying agent) taken daily at bedtime was compared to placebo for the treatment of PTSD at 45 U.S. sites. […] A pre-planned interim analysis was conducted when about half the originally planned sample of 550 participants had outcome data.
# (§5) The modified intention-to-treat (mITT) population, which included all randomized subjects with at least one post-baseline CAPS-5, included 125 participants treated with 5.6 mg dose per day the above cyclobenzaprine HCl sublingual formulation and 127 participants on placebo were studied.
# Sexual functioning was measured by Changes in Sexual Functioning Questionnaire short-form (CSFQ-14) which is a validated 14-item measure (Keller, McGarvey, Clayton, 2006). Parallel gender-specific versions are administered to males (CSFQ-14-M) and females (CSFQ-14-F), and each sex was analyzed separately. In addition to a total sexual functioning score, there are five sub-scales: desire/frequency, desire/interest, arousal/excitement, orgasm/complete, and pleasure. The scales range from (never) to (every day) and higher scores reflect greater levels of sexual functioning.
# as §2, §3
# [3] = Phase 2 study in military-related PTSD, drug and placebo groups
# Description: as §1
# PTSD = conditions: all three trials (Phase 2, two Phase 3), 5.6 mg dose
# Description: as §1
# [4] = Description: as §4, §5
# military-related PTSD = conditions: female subgroup (10 active, 17 placebo), 5.6 mg per day sublingual, after 12 weeks of treatment
# Description: as §4, §5
# [5] = both Phase 3 studies
# Description: as §1, §2
structure (smiles),measurement,setting,value
CN(C)CCC=C1c2ccccc2C=Cc2ccccc21 [cyclobenzaprine HCl],"CSFQ-14-F arousal/excitement subscale, Hedges' g vs placebo",[1],0.33
same,"CSFQ-14-F desire/frequency subscale, Hedges' g vs placebo",[1],0.21
same,"CSFQ-14-F desire/interest subscale, Hedges' g vs placebo",[1],0.23
same,"CSFQ-14-F orgasm/completion subscale, Hedges' g vs placebo",[1],0.29
same,"CSFQ-14-F pleasure subscale, Hedges' g vs placebo",[1],0.19
same,"CSFQ-14-F total score, Hedges' g effect size vs placebo",[1]; p=0.07,0.37
same,"CSFQ-14-F arousal/excitement subscale, Hedges' g vs placebo",[2],0.55
same,"CSFQ-14-F desire/frequency subscale, Hedges' g vs placebo",[2],0.46
same,"CSFQ-14-F desire/interest subscale, Hedges' g vs placebo",[2],0.63
same,"CSFQ-14-F orgasm/completion scale, effect vs placebo",[2],No effect
same,"CSFQ-14-F pleasure subscale, Hedges' g vs placebo",[2],0.54
same,"CSFQ-14-F total score, Hedges' g effect size vs placebo",[2],0.49
same,rates of adverse events related to sexual function,[3],very low rates
same,activity on clinician- and patient-rated global PTSD symptoms (CGI and PGIC),PTSD,encouraging activity
same,severity of oral hypoaesthesia,[4]; military Phase 3,never rated as severe
same,participants with at least one AE leading to study discontinuation,"[4]; military Phase 3, 5.6 mg dose (placebo: two)",8 participants
same,most frequent adverse event,"[4]; military Phase 3, 5.6 mg sublingual daily at bedtime",oral hypoaesthesia
same,duration of oral hypoaesthesia post administration,"[4]; military Phase 3, generally transient",< 60 min
same,most common systemic adverse event,"[4]; military Phase 3, also never rated as severe",somnolence
same,observed mean improvement in CAPS-5 over placebo,military-related PTSD,−9.1 units
same,severity of oral hypoaesthesia,[5],never rated as severe
same,most frequent adverse event,[5]; 5.6 mg sublingual,oral hypoaesthesia
same,duration of oral hypoaesthesia post administration,[5]; generally transient,< 60 min
same,most common systemic adverse event,[5]; also never rated as severe,somnolence
